Patent publication US8178091B2, “Compositions and methods for the treatment of respiratory disorders” (University of Washington, priority 2007, dated 2012)
Entries after “also recorded” stand apart in the source; their conditions may differ.

Experiments:
[1] = type: in vivo, mice; details: absence of bleomycin, not shown
Description: In the saline control group, most deaths occurred between 7 and 10 days, as expected in this model. […] In the absence of bleomycin, administration of A12 alone had no affect on survival, lung histology, BAL protein concentration or cell count (not shown).

[2] = system: fibroblasts; assay: Fas-induced apoptosis, fibroblasts; type: cell-based, human; details: data not shown
Procedure: Primary normal human lung fibroblasts (Clonetics, Cambrex Bioscience, Rockland, Me.), primary distal lung human epithelial cells (Clonetics) or A549 (American Type Culture Collection, Manassas, Va.) were seeded in a 96-well tissue culture plate (2×10^4 cells/well) overnight and serum-starved for 24 hours. Function blocking antibody to the human type 1 IGF receptor (A12), a generous gift from ImClone Systems (New York, N.Y.) (Burtrum D, et al., Cancer Res 63:8912-8921 (2003); Wu J D, et al., Clin Cancer Res 11:3065-3074 (2005)), was added to media at indicated concentration for 24 hours. In some experiments, soluble Fas ligand (Alexis Biochemicals, Lausen, Switzerland) or IGFBP-3 (R&D Systems) was added to cells. […] After 48 hours, apoptosis was measured. To prevent detached cells from being aspirated, plates were centrifuged at 200×g for 10 minutes, and apoptosis was measured using the Cell Death Detection ELISA-plus System (Roche Applied Science, Penzberg, Germany), which detects cytosolic histone-complexed DNA fragments. […] The data are reported as the mean absorbance of triplicate wells mean+SE or as apoptosis index, defined as the ratio of the mean absorbance of triplicate wells in the experimental condition OD405 nm/control (media alone) OD405 nm.

[3] = target: insulin receptor (IR) (Homo sapiens, UniProt P06213); details: cited from earlier work
[4] = system: primary mouse lung fibroblasts; assay: migration assay (FluoroBlok transwell); type: cell-based, C57BL6 mice; details: IGF-1 100 ng/ml; A12 40 μg/ml preincubation
Procedure: Mouse lung fibroblasts were plated FluoroBlok transwell filters overnight, then IGF-1 (100 ng/ml), serum free media (negative control), 10% serum (positive control) was added to lower chamber. Some cells were preincubated with the blocking antibody to IGF-1R (A12, 40 μg/ml) before the addition of IGF-1. Cells were allowed to migrate through membrane for 4 hours @ 37° C. Migrated cells were counted with Fluorescent microscope. Each experiments was done in triplicate and repeated at least three times. Average cell count ±SD are presented.
For migration assays, primary mouse lung fibroblasts (50,000 cells/well) were plated in serum-free medium overnight on Fluoroblok transwell filters (8 μm pores, HTS FluoroBlok™ 24-Multiwell Insert System, BD Bioscience, Bedford, Mass.) pre-coated with fibronectin (50 μg/ml). Fluoroblok microporous membranes are specifically designed to detect by fluorescence only cells below the surface membrane. IGF-1 (100 ng/ml), 10% FBS (positive control) or serum-free media (negative control) was added to lower chamber. In some experiments, cells were preincubated with the blocking antibody to IGF-1R (A12, 40 μg/ml), for 1 hour. After 4 hours of migration, filters were fixed with formaldehyde and stained with DAPI (4′6-Diamidine-2′-phenylindole dihydrochloride, Roche, Indianapolis, Ind.). Migrated cells were counted in three predesignated fields for each filter. All experiments were done in triplicate and repeated at least three times.

[5] = system: bleomycin-treated mice; assay: bleomycin-induced lung injury and fibrosis model; type: in vivo
Procedure: ICR male mice are anesthetized under pentobarbital (60 mg/kg, i.v.) anesthesia, the cervical region is shaved and the skin is incised for about 4 mm from under the larynx region along the median line. Next, the muscle layer covering upper trachea is peeled off to expose the trachea. Using a micro-syringe, physiological saline or bleomycin hydrochloride (0.03 mg/animal, manufactured by Nippon Kayaku) is administered tracheally (50 μl/animal) from the tracheal smooth muscle region between cricoid cartilage. After the administration, the incised region is closed and antibiotics are administered into the thigh intramuscularly in order to prevent infection. IGF-1R inhibitor, e.g., antibody to IGF-1 receptor (A12). […] Controls included bleomycin-treated animals receiving saline injection in place of A12 antibody. At various time points after the induction, each animal is sacrificed by exsanguination under pentobarbital anesthesia, and lung tissue is excised to monitor for differences in lung injury in the test versus control groups. In addition, bronchoalveolar lavage is performed, with analysis of the resulting fluid for differences in total protein, cytokines, inflammatory cells and fibroblasts or in the responsiveness of such cells to, e.g., apoptotic or other stimuli. Lung hydroxyproline content is measured as a measure of fibrosis. Changes in lung tissue histology are also monitored. Further details on the processing of lung tissue for analysis include the following. At time of sacrifice, the right main stem bronchus was tied off and the left lung was isolated and lavaged with 1 ml of PBS containing 0.6 mM EDTA warmed to 37° C. Bronchoalveolar lavage fluid (BALF) total cell count was determined by trypan blue exclusion and cell differential was determined on Diff quick (Dade Behring Ag, Düdingen, Switzerland) stained cytospins. Following brief centrifugation, cell-free supernatants were used for measurement of total protein by Bio-Rad protein assay (Bio-Rad laboratories, Hercules, Calif.). […] Hydroxyproline concentration was extrapolated from a standard curve. The right lung was inflated and fixed with 4% formaldehyde at 25 cmH2O pressure for histologic evaluation.
For these experiments, the bleomycin-induced lung injury was initiated in the manner described herein above, and the A12 anti-IGF-1R antibody was used for receptor blockade. Mice treated with bleomycin were treated with a monoclonal antibody against the IGF-1 receptor (A12) or vehicle.
For statistical analyses of the data, means of more than two groups of data were compared using one-way analysis of variance (ANOVA) with Tukey's honestly significant difference (HSD) post hoc test. In some cases, Kaplan-Meier Survival Analysis was performed using JMP IN v5.1; statistical significance was determined using log rank test.

A12: Function blocking antibody to the human type 1 IGF receptor, gift from ImClone Systems
survival, lung histology, BAL protein concentration or cell count [1]: had no affect | Fas-induced apoptosis of fibroblasts [2]: did not alter Fas-induced apoptosis | cross-reaction with insulin receptor [3]: does not cross-react | effect on IGF-1-induced migration [4]: inhibited; also recorded: abrogated the increased migration | proportion of mice surviving ([5]; 7-14 days post-bleomycin, A12 40 mg/kg i.p. vs saline): significantly greater | BALF total protein concentration ([5]; 28 days, vs saline, p=0.16): trend towards decreased BALF protein concentration | weight loss ([5]; by d14, bleomycin-treated mice): 20% | lung hydroxyproline content (fibrosis) ([5]; day 7 and day 14, vs saline): no significant differences | lung histology ([5]; day 14, vs saline): Only subtle histological differences; also recorded: qualitatively less fibrosis | lung histology ([5]; day 28, vs saline): Reduced evidence of fibrosis; also recorded: better preservation of lung architecture and lung size, and fewer areas of fibrosis | lung hydroxyproline content (fibrosis) ([5]; day 28, vs saline control (p=0.03) or d14 (p=0.001)): significantly lower lung hydroxyproline levels; also recorded: significantly less hydroxyproline | BALF total protein concentration ([5]; days 7 and 14, vs saline): no significant difference; also recorded: no difference in BALF protein concentration | survival (Kaplan-Meier) ([5]; n=24 per group, p=0.01 vs saline control): statistically significant survival benefit | BALF differential cell count ([5]; vs saline): no significant difference; also recorded: no difference in the cell differential | BALF total cell count ([5]; vs saline): no significant difference; also recorded: not statistically different | respiratory or systemic distress by body condition scoring ([5]; vs saline control): less evidence of respiratory or systemic distress
